# Key:
# Assay type in all cases: ADME, cell-free; call rule not given here
# [1] = Plasma protein binding in rat at 408 ug/ml by ultrafiltration method; details: read-out: PPB (converted)
# [2] = Binding affinity to Hb in rat plasma by SDS-PAGE analysis
# [3] = Plasma protein binding in rat at 816 ug/ml by ultrafiltration method; details: read-out: PPB (converted)
# [4] = Binding affinity to Hb in rat plasma at 1.5 x 10' -5 to 2.8 x 10' -5 mmol/l by CD spectroscopy
# [5] = Plasma protein binding in rat at 1020 ug/ml by ultrafiltration method; details: read-out: PPB (converted)
# [6] = Binding affinity to Hb in rat plasma at 2.5 x 10' -6 to 15 x 10' -6 mmol/l by fluorescence emission spectroscopy
smiles,measurement,setting,value
CC(=O)O[C@H]([C@@H](O)C[C@@H](C)C1=C2C[C@H](O)[C@H]3[C@@]4(C)CCC(=O)C(C)(C)[C@@H]4CC[C@]3(C)[C@@]2(C)CC1)C(C)(C)O,fraction unbound at 408 ug/ml,[1],0.3
same,Activity,[2],Active
same,fraction unbound at 816 ug/ml,[3],0.29
same,Activity,[4],Active
same,fraction unbound at 1020 ug/ml,[5],0.279
same,Activity,[6],Active

# From ChEMBL document CHEMBL3352015, “The binding mechanisms of plasma protein to active compounds in Alismaorientale rhizomes (Alismatis Rhizoma)” (Bioorg Med Chem Lett, 2014)
